Reference: patent US20250120981A1, “MRTX1133 PHARMACEUTICAL COMPOSITIONS” (MIRATI THERAPEUTICS, INC., priority 2023, published 2025)
Several values for one entry are separate records, joined by “and”; a condition that tells them apart may be missing. Equal entries are not always repeated. Where two headings read alike, the source gives them in different places.

Assay: Pharmacokinetics in humans, MRTX1133 formulation, oral, single and multiple doses
Assay type: in vivo
Details: for AUC0-12 Accumulation Ratio, Geo Mean / Cmax Accumulation Ratio, Geo Mean / Peak to Trough Ratio, Geo Mean: geometric mean of subjects
Description: The pharmacokinetics [PK] of the MRTX1133 formulation after oral administration has been evaluated in 25 subjects across 3 escalating dose frequencies under fasting conditions (200 mg twice daily [BID], 400 mg BID, and 800 mg BID), as well as evaluation of 400 mg BID when administered with a low-fat meal (i.e., under fed conditions). The mean (+standard deviation) single-dose and multiple-dose pharmacokinetic profiles of the evaluated doses are presented in FIG. 9 and FIG. 10, respectively. Individual single- and multiple-dose PK profiles can be found in FIG. 11. For all figures, the X-axis represents nominal time of sample collection (hours [h]) and the Y-axis represents plasma concentration (ng/mL). Table 10 lists PK data following the oral administration of a single dose and multiple doses of MRTX1133 formulation by dose level and subject.

[1] = multiple oral doses of 200 mg BID, fasted
[2] = multiple oral doses of 200 mg BID, fasted, individual subjects
[3] = multiple oral doses of 400 mg BID with a low-fat meal
[4] = multiple oral doses of 400 mg BID with a low-fat meal, individual subjects
[5] = multiple oral doses of 400 mg BID, fasted
[6] = multiple oral doses of 400 mg BID, fasted, individual subjects
[7] = multiple oral doses of 800 mg BID, fasted, Geo Mean of subjects

C#Cc1c(F)ccc2cc(O)cc(-c3ncc4c(N5C[C@H]6CC[C@@H](C5)N6)nc(OC[C@@]56CCCN5C[C@H](F)C6)nc4c3F)c12 [MRTX1133, 4-(4-((1R,5S)-3,8-diazabicyclo[3.2.1]octan-3-yl)-8-fluoro-2-(((2R,7aS)-2-fluorohexahydro-1Hpyrrolizin-7a-yl)methoxy)pyrido[4,3-d]pyrimidin-7-yl)-5-ethynyl-6-fluoronaphthalen-2-ol]
concentration at 0 h (human, plasma, po, 800 mg, single oral dose of 800 mg, fasted, 0 h, individual subjects, read-out: Plasma concentration): 0 ng/mL
concentration at 0.5 h (human, plasma, po, 800 mg, single oral dose of 800 mg, fasted, 0.5 h, mean of subjects, read-out: Plasma concentration, Mean): 235 ng/mL
concentration at 1 h (human, plasma, po, 800 mg, single oral dose of 800 mg, fasted, 1 h, mean of subjects, read-out: Plasma concentration, Mean): 286 ng/mL
concentration at 1.5 h (human, plasma, po, 800 mg, single oral dose of 800 mg, fasted, 1.5 h, mean of subjects, read-out: Plasma concentration, Mean): 151 ng/mL
concentration at 2 h (human, plasma, po, 800 mg, single oral dose of 800 mg, fasted, 2 h, mean of subjects, read-out: Plasma concentration, Mean): 117 ng/mL
concentration at 4 h (human, plasma, po, 800 mg, single oral dose of 800 mg, fasted, 4 h, mean of subjects, read-out: Plasma concentration, Mean): 67.6 ng/mL
concentration at 6 h (human, plasma, po, 800 mg, single oral dose of 800 mg, fasted, 6 h, mean of subjects, read-out: Plasma concentration, Mean): 57.9 ng/mL
concentration at 8 h (human, plasma, po, 800 mg, single oral dose of 800 mg, fasted, 8 h, mean of subjects, read-out: Plasma concentration, Mean): 49.7 ng/mL
concentration at 12 h (human, plasma, po, 800 mg, single oral dose of 800 mg, fasted, 12 h, mean of subjects, read-out: Plasma concentration, Mean): 12.6 ng/mL
concentration at 24 h (human, plasma, po, 800 mg, single oral dose of 800 mg, fasted, 24 h, mean of subjects, read-out: Plasma concentration, Mean): 25.5 ng/mL
AUC(0-t) (human, plasma, po, 800 mg, single oral dose of 800 mg, fasted, Geo Mean of subjects, read-out: AUC0-12): 440 ng·h/mL
AUC0-inf (human, plasma, po, 800 mg, single oral dose of 800 mg, fasted, Geo Mean of subjects, read-out: AUC0-inf): 543 ng·h/mL
AUC(0-t) (human, plasma, po, 800 mg, single oral dose of 800 mg, fasted, Geo Mean of subjects, read-out: AUC0-last): 463 ng·h/mL
Cmax (human, plasma, po, 800 mg, single oral dose of 800 mg, fasted, Geo Mean of subjects, read-out: Cmax): 123 ng/mL
Tmax (human, plasma, po, 800 mg, single oral dose of 800 mg, fasted, Median of subjects, read-out: Tmax): 1.2 h
AUC0-12 Accumulation Ratio, Geo Mean [1]: 0.9
Cmax Accumulation Ratio, Geo Mean [1]: 0.6
Peak to Trough Ratio, Geo Mean [1]: 12.3
AUC0-12 [2]: 181 ng·h/mL and 84.0 ng·h/mL and 42.9 ng·h/mL and 115 ng·h/mL
AUC0-12 Accumulation Ratio [2]: 1.30 and 0.94 and 0.44 and 1.16
AUC0-last [2]: 181 ng·h/mL and 84.0 ng·h/mL and 42.9 ng·h/mL and 115 ng·h/mL and 31.9 ng·h/mL
Cmax [2]: 85.0 ng/mL and 15.0 ng/mL and 49.4 ng/mL and 56.2 ng/mL and 17.1 ng/mL
Cmax Accumulation Ratio [2]: 0.73 and 0.71 and 0.85 and 1.26 and 0.14
Peak to Trough Ratio [2]: 52.1 and 2.75 and 78.2 and 24.9 and 1.02
Tlast [2]: 12 h (4×) and 2.0 h
Tmax [2]: 0.5 h
AUC0-12 Accumulation Ratio, Geo Mean [3]: 1.7
Cmax Accumulation Ratio, Geo Mean [3]: 1.9
Peak to Trough Ratio, Geo Mean [3]: 12.9
AUC0-12 [4]: 1,475 ng · h/mL and 457 ng · h/mL and 107 ng · h/mL and 127 ng · h/mL
AUC0-12 Accumulation Ratio [4]: 2.61 and 1.50 and 2.52 and 0.75
AUC0-last [4]: 1,475 ng · h/mL and 457 ng · h/mL and 107 ng · h/mL and 127 ng · h/mL
Cmax [4]: 390 ng/mL and 250 ng/mL and 48.2 ng/mL and 23.0 ng/mL
Cmax Accumulation Ratio [4]: 4.69 and 2.66 and 1.71 and 0.63
Peak to Trough Ratio [4]: 7.25 and 84.7 and 10.6 and 4.27
Tlast [4]: 12 h
Plasma concentration (multiple oral doses of 400 mg BID, fasted, 0.5 h, individual subjects): 79.1 ng/mL and 58.5 ng/mL and 82.8 ng/mL and 83.0 ng/mL and 29.7 ng/mL and 23.6 ng/mL and 152 ng/mL
Plasma concentration (multiple oral doses of 400 mg BID, fasted, 1 h, individual subjects): 129 ng/mL and 31.5 ng/mL and 61.2 ng/mL and 38.4 ng/mL and 11.5 ng/mL and 44.7 ng/mL and 285 ng/mL
Plasma concentration (multiple oral doses of 400 mg BID, fasted, 1.5 h, individual subjects): 90.2 ng/mL and 28.5 ng/mL and 38.9 ng/mL and 32.3 ng/mL and 15.2 ng/mL and 38.0 ng/mL and 209 ng/mL
Plasma concentration (multiple oral doses of 400 mg BID, fasted, 2 h, individual subjects): 99.0 ng/mL and 27.2 ng/mL and 55.6 ng/mL and 23.4 ng/mL and 21.1 ng/mL and 30.0 ng/mL and 83.1 ng/mL
Plasma concentration (multiple oral doses of 400 mg BID, fasted, 4 h, individual subjects): 82.8 ng/mL and 11.0 ng/mL and 115 ng/mL and 23.8 ng/mL and 5.34 ng/mL and 233 ng/mL and 70.5 ng/mL
Plasma concentration (multiple oral doses of 400 mg BID, fasted, 6 h, individual subjects): 189 ng/mL and 2.51 ng/mL and 45.3 ng/mL and 10.7 ng/mL and 4.38 ng/mL and 148 ng/mL and 43.8 ng/mL
Plasma concentration (multiple oral doses of 400 mg BID, fasted, 8 h, individual subjects): 88.9 ng/mL and 2.27 ng/mL and 33.3 ng/mL and 8.36 ng/mL and 3.68 ng/mL and 110 ng/mL and 35.5 ng/mL
Plasma concentration (multiple oral doses of 400 mg BID, fasted, 12 h, individual subjects): 76.9 ng/mL and 2.76 ng/mL and 31.2 ng/mL and 6.42 ng/mL and 3.71 ng/mL and 42.1 ng/mL and 31.3 ng/mL
AUC0-12 Accumulation Ratio, Geo Mean [5]: 1.6
Cmax Accumulation Ratio, Geo Mean [5]: 1.3
Peak to Trough Ratio, Geo Mean [5]: 11.1
AUC0-12 [6]: 1,237 ng · h/mL and 128 ng · h/mL and 640 ng · h/mL and 211 ng · h/mL and 89.4 ng · h/mL and 1,239 ng · h/mL and 821 ng · h/mL
AUC0-12 Accumulation Ratio [6]: 3.02 and 1.35 and 5.02 and 1.40 and 0.76 and 0.73 and 1.41
AUC0-last [6]: 1,237 ng · h/mL and 128 ng · h/mL and 640 ng · h/mL and 211 ng · h/mL and 89.4 ng · h/mL and 1,239 ng · h/mL and 821 ng · h/mL
Cmax [6]: 189 ng/mL and 58.5 ng/mL and 115 ng/mL and 83.0 ng/mL and 29.7 ng/mL and 233 ng/mL and 285 ng/mL
Cmax Accumulation Ratio [6]: 3.04 and 0.94 and 1.73 and 1.17 and 0.80 and 0.83 and 1.52
Peak to Trough Ratio [6]: 3.30 and 101 and 3.47 and 9.10 and 6.32 and 23.7 and 13.4
Tlast [6]: 12 h
Tmax [6]: 6.0 h and 0.5 h (3×)
AUC0-12 Accumulation Ratio [7]: 1.0
Cmax Accumulation Ratio [7]: 0.8
Peak to Trough Ratio [7]: 9.6
